The record followed here is patent US20250163104A1, “MACROCYCLIC IMMUNOMODULATORS” (priority 2021, published 2025).

Where a SMILES comes first, the peptide text is derived from it. Bridges are numbered along the chain shown (N, C = ends). [ ]: non-standard residue; d: D form. The star is where a group is joined. Phe(3-COOH) = N[C@@H](Cc1cccc(C(=O)O)c1)C(=O)O; Phe(4-COOH) = N[C@@H](Cc1ccc(C(=O)O)cc1)C(=O)O; Trp(7-F) = N[C@@H](Cc1c[nH]c2c(F)cccc12)C(=O)O; Trp(7-Me) = Cc1cccc2c(C[C@H](N)C(=O)O)c[nH]c12; Bip = N[C@@H](Cc1ccc(-c2ccccc2)cc1)C(=O)O; Phe(3-Me) = Cc1cccc(C[C@H](N)C(=O)O)c1; Cha = N[C@@H](CC1CCCCC1)C(=O)O; Cit = NC(=O)NCCC[C@H](N)C(=O)O; Hpra = C#CCC[C@H](N)C(=O)O; Carboxymethyl = O=C(O)C*; Orn = NCCC[C@H](N)C(=O)O; Pra = C#CC[C@H](N)C(=O)O; Dab = NCC[C@H](N)C(=O)O; Dap = NC[C@H](N)C(=O)O; X2 = Cc1cnc(CN*)cn1; Propargyl = C#CC*

T1 sequence (Q15116 25-288): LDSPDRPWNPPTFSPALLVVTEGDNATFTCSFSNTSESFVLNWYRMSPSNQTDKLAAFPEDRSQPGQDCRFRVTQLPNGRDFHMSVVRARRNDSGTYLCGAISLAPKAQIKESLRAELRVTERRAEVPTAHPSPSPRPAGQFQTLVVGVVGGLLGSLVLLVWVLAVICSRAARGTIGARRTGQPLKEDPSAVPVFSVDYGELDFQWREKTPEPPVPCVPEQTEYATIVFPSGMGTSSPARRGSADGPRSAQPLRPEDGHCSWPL

The test has as its target T1, human PD-1 / PD-L1-Ig binding on Jurkat cell line over-expressing human PD-1 (Jurkat-PD-1) (Homo sapiens, UniProt Q15116).
T1 construct: expressed in transfected cells; host or cells: Jurkat
The test is described as follows: Jurkat-PD-1 Cell Binding High-Content Screening Assay (CBA). It counts as cell-based. Particulars: Jurkat-PD-1 cells, PE-labeled PD-L1-Ig 20 nM final; read-out: Jurkat HPD1_PDL1 IC50. Put shortly:
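Jurkat-hPD-1 cells in DMEM with 10% fetal calf serum receive test compound and are held at 37° C for 2 h. PE-labeled PD-L1-Ig is added at 20 nM final and left for 1 hour. Cells are then fixed and Hoechst-stained, and binding is measured by imaging.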
By IC50 is commonly meant the point on the concentration scale where inhibition reaches its midpoint. In the case of `C#CC[C@@H]1NC(=O)[C@H](CC2CCCCC2)NC(=O)[C@H](CCN)NC(=O)[C@@H](CC(C)C)NC(=O)[C@H](CCCN)NC(=O)[C@H](C(C)C)NC(=O)[C@H](Cc2ccc(-c3ccccc3)cc2)NC(=O)[C@H](C(C)C)NC(=O)[C@H](Cc2cccc(C)c2)NC(=O)[C@H](CC(=O)O)NC(=O)[C@H](Cc2ccc(OCC(=O)O)cc2)NC(=O)[C@H](CN)NC(=O)CSC[C@@H](C(N)=O)NC(=O)[C@H]([C@@H](C)O)NC1=O` [Compound 2013] ({CH2CO}-[Dap]Y(Carboxymethyl)D[Phe(3-Me)]V[Bip]V[Orn][dL][Dab][Cha][Pra]TC-NH2; thioether N-14), the IC50 turned out to be 0.0212 µM. As for `CC(C)C[C@@H]1NC(=O)[C@H](Cc2c[nH]c3ccccc23)NC(=O)[C@H](CC(=O)O)NC(=O)[C@H](Cc2ccc(C(=O)O)cc2)NC(=O)[C@H](Cc2cccc(C(=O)O)c2)NC(=O)CSC[C@@H](C(=O)NCC(N)=O)NC(=O)[C@H](CO)NC(=O)[C@H](C(C)C)NC(=O)[C@H](CC2CCCCC2)NC(=O)[C@H](CCN)NC(=O)[C@@H](CC(C)C)NC(=O)[C@H](CCCN)NC(=O)[C@H](C(C)C)NC(=O)[C@H](Cc2ccc(-c3ccccc3)cc2)NC1=O` [Compound 2014] ({CH2CO}-[Phe(3-COOH)][Phe(4-COOH)]DWL[Bip]V[Orn][dL][Dab][Cha]VSCG-NH2; thioether N-14), the half-maximal inhibitory concentration (IC50) came to 0.0172 µM. `CCNC(=O)[C@H](C)NC(=O)[C@@H]1CSCC(=O)N[C@@H](CN)C(=O)N[C@@H](Cc2ccc(OCC(=O)O)cc2)C(=O)N[C@@H](CC(=O)O)C(=O)N[C@@H](Cc2cccc(C)c2)C(=O)N[C@@H](C(C)C)C(=O)N[C@@H](Cc2ccc(-c3ccccc3)cc2)C(=O)N[C@@H](CCCNC(N)=O)C(=O)N[C@@H](CCCN)C(=O)N[C@H](CC(C)C)C(=O)N[C@@H](CCN)C(=O)N[C@@H](CC2CCCCC2)C(=O)N[C@@H](C(C)C)C(=O)N[C@@H](CN)C(=O)N1` [Compound 2015] ({CH2CO}-[Dap]Y(Carboxymethyl)D[Phe(3-Me)]V[Bip][Cit][Orn][dL][Dab][Cha]V[Dap]CA-NHEt; thioether N-14): the IC50 was found to be 0.0105 µM. Take `C#CC[C@H](NC(=O)[C@H](CCCN)NC(=O)[C@@H]1CSCC(=O)N[C@@H](CN)C(=O)N[C@@H](Cc2ccc(OCC(=O)O)cc2)C(=O)N[C@@H](CC(=O)O)C(=O)N[C@@H](Cc2cccc(C)c2)C(=O)N[C@@H](C(C)C)C(=O)N[C@@H](Cc2ccc(-c3ccccc3)cc2)C(=O)N[C@@H](C(C)C)C(=O)N[C@@H](CCCN)C(=O)N[C@H](CC(C)C)C(=O)N[C@@H](CCN)C(=O)N[C@@H](CC2CCCCC2)C(=O)N[C@@H](C(C)C)C(=O)N[C@@H]([C@@H](C)O)C(=O)N1)C(N)=O` [Compound 2017] ({CH2CO}-[Dap]Y(Carboxymethyl)D[Phe(3-Me)]V[Bip]V[Orn][dL][Dab][Cha]VTC[Orn][Pra]-NH2; thioether N-14): the IC50 came to 0.0116 µM. For the compound `Cc1cccc2c(C[C@@H]3NC(=O)[C@H](CC(=O)O)NC(=O)[C@H](Cc4ccc(OCC(=O)O)cc4)NC(=O)[C@H](CN)NC(=O)CSC[C@@H](C(=O)N[C@@H](CCN)C(N)=O)NC(=O)[C@H]([C@@H](C)O)NC(=O)[C@H](C(C)C)NC(=O)[C@H](CC4CCCCC4)NC(=O)[C@H](CCN)NC(=O)[C@@H](CC(C)C)NC(=O)[C@H](CCCN)NC(=O)[C@H](C(C)C)NC(=O)[C@H](Cc4ccc(-c5ccccc5)cc4)NC(=O)[C@H](C(C)C)NC3=O)c[nH]c12` [Compound 2018] ({CH2CO}-[Dap]Y(Carboxymethyl)D[Trp(7-Me)]V[Bip]V[Orn][dL][Dab][Cha]VTC[Dab]-NH2; thioether N-14), the IC50 was determined as 0.335 µM. On to `Cc1cccc(C[C@@H]2NC(=O)[C@H](CC(=O)O)NC(=O)[C@H](Cc3ccc(OCC(=O)O)cc3)NC(=O)[C@H](CN)NC(=O)CSC[C@@H](C(=O)N[C@@H](C)C(=O)NCc3cnc(C)cn3)NC(=O)[C@H](CN)NC(=O)[C@H](C(C)C)NC(=O)[C@H](CC3CCCCC3)NC(=O)[C@H](CCN)NC(=O)[C@@H](CC(C)C)NC(=O)[C@H](CCCN)NC(=O)[C@H](CCCNC(N)=O)NC(=O)[C@H](Cc3ccc(-c4ccccc4)cc3)NC(=O)[C@H](C(C)C)NC2=O)c1` [Compound 2019] ({CH2CO}-[Dap]Y(Carboxymethyl)D[Phe(3-Me)]V[Bip][Cit][Orn][dL][Dab][Cha]V[Dap]CA-X2; thioether N-14), for which the IC50 is 0.0128 µM. On to `CC(C)C[C@H]1NC(=O)[C@H](CCCN)NC(=O)[C@H](C(C)C)NC(=O)[C@H](Cc2ccc(-c3ccccc3)cc2)NC(=O)[C@H](C(C)C)NC(=O)[C@H](Cc2c[nH]c3c(F)cccc23)NC(=O)[C@H](CC(=O)O)NC(=O)[C@H](Cc2ccc(OCC(=O)O)cc2)NC(=O)[C@H](CN)NC(=O)CSC[C@@H](C(=O)N[C@@H](CCN)C(N)=O)NC(=O)[C@H]([C@@H](C)O)NC(=O)[C@H](C(C)C)NC(=O)[C@H](CC2CCCCC2)NC(=O)[C@H](CCN)NC1=O` [Compound 2020] ({CH2CO}-[Dap]Y(Carboxymethyl)D[Trp(7-F)]V[Bip]V[Orn][dL][Dab][Cha]VTC[Dab]-NH2; thioether N-14), for which the IC50 was determined as 0.0131 µM. On to `CC(C)C[C@@H]1NC(=O)[C@H](Cc2c[nH]c3ccccc23)NC(=O)[C@H](CC(=O)O)NC(=O)[C@H](Cc2cccc(C(=O)O)c2)NC(=O)[C@H](CN)NC(=O)CSC[C@@H](C(=O)NCC(N)=O)NC(=O)[C@H](CO)NC(=O)[C@H](C(C)C)NC(=O)[C@H](CC2CCCCC2)NC(=O)[C@H](CCN)NC(=O)[C@@H](CC(C)C)NC(=O)[C@H](CCCN)NC(=O)[C@H](C(C)C)NC(=O)[C@H](Cc2ccc(-c3ccccc3)cc2)NC1=O` [Compound 2021] ({CH2CO}-[Dap][Phe(3-COOH)]DWL[Bip]V[Orn][dL][Dab][Cha]VSCG-NH2; thioether N-14), for which the IC50 was 0.0151 µM. For `C#CCOc1ccc(C[C@@H]2NC(=O)[C@H](Cc3cccc(C)c3)NC(=O)[C@H](CC(=O)O)NC(=O)[C@H](Cc3ccc(C(=O)O)cc3)NC(=O)[C@H](CN)NC(=O)CSC[C@@H](C(=O)N[C@@H](CCN)C(N)=O)NC(=O)[C@H]([C@@H](C)O)NC(=O)[C@H](C(C)C)NC(=O)[C@H](CC3CCCCC3)NC(=O)[C@H](CCN)NC(=O)[C@@H](CC(C)C)NC(=O)[C@H](CCCN)NC(=O)[C@H](C(C)C)NC(=O)[C@H](Cc3ccc(-c4ccccc4)cc3)NC2=O)cc1` [Compound 2022] ({CH2CO}-[Dap][Phe(4-COOH)]D[Phe(3-Me)]Y(Propargyl)[Bip]V[Orn][dL][Dab][Cha]VTC[Dab]-NH2; thioether N-14), the IC50 came out at 0.0069 µM. On to `C#CCC[C@@H]1NC(=O)[C@H](Cc2ccc(-c3ccccc3)cc2)NC(=O)[C@H](C(C)C)NC(=O)[C@H](Cc2cccc(C)c2)NC(=O)[C@H](CC(=O)O)NC(=O)[C@H](Cc2ccc(C(=O)O)cc2)NC(=O)[C@H](CN)NC(=O)CSC[C@@H](C(=O)N[C@@H](CCN)C(N)=O)NC(=O)[C@H]([C@@H](C)O)NC(=O)[C@H](C(C)C)NC(=O)[C@H](CC2CCCCC2)NC(=O)[C@H](CCN)NC(=O)[C@@H](CC(C)C)NC(=O)[C@H](CCCN)NC1=O` [Compound 2023] ({CH2CO}-[Dap][Phe(4-COOH)]D[Phe(3-Me)]V[Bip][Hpra][Orn][dL][Dab][Cha]VTC[Dab]-NH2; thioether N-14), for which the IC50 came out at 0.0114 µM.
